This is an account of results in ChEMBL document CHEMBL1140374, “2-n-Butyl-9-methyl-8-[1,2,3]triazol-2-yl-9H-purin-6-ylamine and analogues as A2A adenosine receptor antagonists. Design, synthesis, and pharmacological characterization” (J Med Chem, 2005).

pIC50, pKi: −log10 of the molar value. Where only a bound is given, the exact number is not on record here.

In assay [1] the target is Glutamate receptor ionotropic AMPA (Homo sapiens, UniProt P42261+P42262+P42263+P48058). Kind of assay: (§1) Percent inhibition against AMPA receptor at 1 uM. Format: protein-complex assay.
A short description of assay [2]: (§2) Percent inhibition against P2Y Purinoceptor at 1 uM. Details: species or system Homo sapiens.
For a further assay, the target named is T1, Adenosine receptor A1 (Homo sapiens, UniProt P30542).
T1 sequence (P30542 whole entry): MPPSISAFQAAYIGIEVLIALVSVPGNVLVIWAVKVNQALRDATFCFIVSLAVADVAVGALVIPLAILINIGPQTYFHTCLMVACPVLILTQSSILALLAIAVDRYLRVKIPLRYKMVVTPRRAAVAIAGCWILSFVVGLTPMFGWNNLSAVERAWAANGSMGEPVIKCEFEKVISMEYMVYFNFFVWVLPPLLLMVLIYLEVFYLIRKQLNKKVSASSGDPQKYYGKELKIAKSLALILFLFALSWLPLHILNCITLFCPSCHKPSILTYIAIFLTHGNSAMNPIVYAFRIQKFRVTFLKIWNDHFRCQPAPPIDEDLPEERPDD
Kind of assay: biochemical.

For another assay, the target named is T2, Adenosine receptor A2b (Homo sapiens, UniProt P29275).
T2 sequence (P29275 whole entry): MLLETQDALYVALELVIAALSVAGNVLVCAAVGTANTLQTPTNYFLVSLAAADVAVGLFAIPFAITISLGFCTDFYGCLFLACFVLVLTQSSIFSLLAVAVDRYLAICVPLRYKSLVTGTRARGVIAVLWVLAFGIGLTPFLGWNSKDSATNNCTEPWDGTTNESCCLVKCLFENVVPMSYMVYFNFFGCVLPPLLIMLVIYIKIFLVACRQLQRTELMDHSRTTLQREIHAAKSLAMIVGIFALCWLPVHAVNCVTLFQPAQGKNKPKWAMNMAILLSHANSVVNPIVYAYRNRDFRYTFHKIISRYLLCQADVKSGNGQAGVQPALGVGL
Briefly: Binding affinity towards human Adenosine A2b receptor expressed in HEK293 cells using 5 nM [3H]DPCPX. The format is cell-based.

The target of a further assay is Adenosine receptor A2a (Homo sapiens, UniProt P29274). Briefly: biochemical.
The target in assay [3] is Vesicular acetylcholine transporter (Homo sapiens, UniProt Q16572). Kind of assay: (§3) Percent inhibition against Acetylcholine transporter at 1 uM.
For assay [4], the target named is GABA-A receptor; anion channel. Kind of assay: (§4) Percent inhibition against GABAA receptor alpha at a compound concentration of 1 uM. The format is protein-complex assay, Homo sapiens.
In assay [5] the target is T3, GABA-A receptor; anion channel (Homo sapiens) (UniProt P14867+P47870+P18507+P28472+P48169+Q99928+Q9UN88+P34903+O00591+O14764+Q8N1C3+P18505+P78334+P47869+P31644+Q16445). Briefly: Percent inhibition against central Benzodiazepine receptor at 1 uM. Format: protein-complex assay.
The species named for assay [6] is Homo sapiens. Briefly: Percent inhibition against P2X Purinergic receptor at 1 uM. The format is tissue-based.
The target of assay [7] is Muscarinic acetylcholine receptor M3 (Homo sapiens) (UniProt P20309). Briefly: Percent inhibition against Muscarinic acetylcholine receptor M3 at 1 uM.
Assay [8] deals with Muscarinic acetylcholine receptor M4 (Homo sapiens) (UniProt P08173). Kind of assay: Percent inhibition against Muscarinic acetylcholine receptor M4 at 1 uM.
Assay [9] addresses Muscarinic acetylcholine receptor M5 (Homo sapiens) (UniProt P08912). Kind of assay: Percent inhibition against Muscarinic acetylcholine receptor M5 at 1 uM.
The target of assay [10] is Sodium-dependent noradrenaline transporter (Homo sapiens) (UniProt P23975). Kind of assay: Percent inhibition against Norepinephrine transporter at 1 uM nonselective.
For assay [11], the target named is 5-hydroxytryptamine receptor 4 (Homo sapiens) (UniProt Q13639). Kind of assay: Percent inhibition against 5-hydroxytryptamine 4 receptor at 1 uM.
Assay [12] addresses 5-hydroxytryptamine receptor 6 (Homo sapiens) (UniProt P50406). Kind of assay: Percent inhibition against 5-hydroxytryptamine 6 receptor at 1 uM.
The target of assay [13] is 5-hydroxytryptamine receptor 1A (Homo sapiens) (UniProt P08908). Kind of assay: Percent inhibition against 5-hydroxytryptamine 1A receptor at 1 uM.
The target of assay [14] is 5-hydroxytryptamine receptor 2A (Homo sapiens) (UniProt P28223). Kind of assay: Percent inhibition against 5-hydroxytryptamine 2A receptor at 1 uM.
Assay [15] concerns the target 5-hydroxytryptamine receptor 2C (Homo sapiens) (UniProt P28335). Kind of assay: Percent inhibition against 5-hydroxytryptamine 2C receptor at 1 uM.
The target in another assay is Adenosine receptor A3 (Homo sapiens, UniProt P0DMS8). Kind of assay: Binding affinity towards human Adenosine A3 receptor expressed in HEK293 cells using 0.1 nM [3H]AB-MECA. The format is cell-based.
Assay [16] concerns the target T4, Glutamate [NMDA] receptor (Homo sapiens) (UniProt Q05586+Q12879+Q13224+O15399+O60391+Q14957+Q8TCU5). Briefly: Percent inhibition against PCP receptor at 1 uM. The format is protein-complex assay.
In assay [17] the target is Glutamate receptor ionotropic AMPA (Homo sapiens) (UniProt P48058+P42263+P42262+P42261). Described as §1. The format is protein-complex assay.
The target of assay [18] is T4, Glutamate [NMDA] receptor (Homo sapiens). Briefly: Percent inhibition against NMDA receptor at a compound concentration of 1 uM. The format is protein-complex assay.
The species entered for assay [19] is Homo sapiens. The assay is described as §2.
For assay [20], the target named is GABA-B receptor (Homo sapiens) (UniProt Q9UBS5+O75899). Kind of assay: Percent inhibition against GABA-B receptor at 1 uM. The format is protein-complex assay.
Assay [21] addresses D(3) dopamine receptor (Homo sapiens) (UniProt P35462). Kind of assay: Percent inhibition against Dopamine receptor D3 at 1 uM.
The target in assay [22] is D(1B) dopamine receptor (Homo sapiens) (UniProt P21918). Briefly: Percent inhibition against Dopamine receptor D5 at 1 uM.
The target of assay [23] is T3, GABA-A receptor; anion channel (Homo sapiens). The assay is described as §4. The format is protein-complex assay.
Assay [24] deals with Vesicular acetylcholine transporter (Homo sapiens) (UniProt Q16572). Described as §3.
Assay [25] addresses Beta-2 adrenergic receptor (Homo sapiens) (UniProt P07550). Kind of assay: Percent inhibition against Beta-2 adrenergic receptor at 1 uM.
Assay [26] deals with Equilibrative nucleoside transporter 1 (Homo sapiens) (UniProt Q99808). Briefly: Percent inhibition against ADO transporter at 1 uM nonselective.
The target in assay [27] is Sodium-dependent dopamine transporter (Homo sapiens) (UniProt Q01959). The following applies: 1 uM.
Assay [28] concerns the target Muscarinic acetylcholine receptor M1 (Homo sapiens) (UniProt P11229). The following applies: at 1 µM.
Assay [29] has as its target Muscarinic acetylcholine receptor M2 (Homo sapiens) (UniProt P08172). The following applies: 1 uM.
The target of assay [30] is Opioid receptors; mu/kappa/delta (Homo sapiens) (UniProt P41145+P41143+P35372). To be noted: at 1 µM.
Assay [31] deals with Serotonin 3 (5-HT3) receptor (Homo sapiens) (UniProt P46098+A5X5Y0+O95264+Q70Z44+Q8WXA8). To be noted: 1 uM.
Assay [32] has as its target 5-hydroxytryptamine receptor 5A (Homo sapiens) (UniProt P47898). The following applies: 1 uM.
Assay [33] deals with Sodium-dependent serotonin transporter (Homo sapiens) (UniProt P31645). The following applies: 1 uM.
The target in assay [34] is D(1A) dopamine receptor (Homo sapiens) (UniProt P21728). To be noted: 1 uM.
For assay [35], the target named is D(2) dopamine receptor (Homo sapiens) (UniProt P14416). To be noted: 1 uM.
Assay [36] addresses D(4) dopamine receptor (Homo sapiens) (UniProt P21917). To be noted: 1 uM.
The target of assay [37] is Beta-1 adrenergic receptor (Homo sapiens) (UniProt P08588). To be noted: 1 uM.
Assay [38] concerns the target Adrenergic receptor alpha-1 (Homo sapiens) (UniProt P35348+P25100+P35368). The following applies: 1 uM.

Chain of Adenosine receptor A2a (P29274 whole entry): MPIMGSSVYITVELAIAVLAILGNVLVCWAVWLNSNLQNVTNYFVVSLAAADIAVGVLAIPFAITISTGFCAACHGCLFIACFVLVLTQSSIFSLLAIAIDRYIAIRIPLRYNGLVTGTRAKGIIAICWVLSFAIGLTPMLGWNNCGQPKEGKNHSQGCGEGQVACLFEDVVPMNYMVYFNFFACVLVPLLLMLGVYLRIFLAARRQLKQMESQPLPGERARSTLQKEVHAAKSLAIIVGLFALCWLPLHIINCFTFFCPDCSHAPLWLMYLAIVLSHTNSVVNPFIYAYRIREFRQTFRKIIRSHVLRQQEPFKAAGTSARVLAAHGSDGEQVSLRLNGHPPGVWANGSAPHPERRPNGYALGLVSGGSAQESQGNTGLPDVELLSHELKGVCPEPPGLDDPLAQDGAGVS
Chain of D(4) dopamine receptor (Homo sapiens) (P21917 whole entry): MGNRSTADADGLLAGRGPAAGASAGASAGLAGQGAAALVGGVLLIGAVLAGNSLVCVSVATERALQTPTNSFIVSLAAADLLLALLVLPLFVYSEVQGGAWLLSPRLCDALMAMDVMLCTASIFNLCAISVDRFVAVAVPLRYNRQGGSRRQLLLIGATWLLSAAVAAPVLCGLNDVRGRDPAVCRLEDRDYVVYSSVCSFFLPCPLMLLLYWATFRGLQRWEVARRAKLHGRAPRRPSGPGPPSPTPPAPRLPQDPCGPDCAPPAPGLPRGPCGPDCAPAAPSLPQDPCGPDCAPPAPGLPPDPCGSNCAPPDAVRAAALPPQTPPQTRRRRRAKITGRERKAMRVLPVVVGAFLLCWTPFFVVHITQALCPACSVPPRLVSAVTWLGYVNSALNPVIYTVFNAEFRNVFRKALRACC
Chain of 5-hydroxytryptamine receptor 4 (Homo sapiens) (Q13639 whole entry): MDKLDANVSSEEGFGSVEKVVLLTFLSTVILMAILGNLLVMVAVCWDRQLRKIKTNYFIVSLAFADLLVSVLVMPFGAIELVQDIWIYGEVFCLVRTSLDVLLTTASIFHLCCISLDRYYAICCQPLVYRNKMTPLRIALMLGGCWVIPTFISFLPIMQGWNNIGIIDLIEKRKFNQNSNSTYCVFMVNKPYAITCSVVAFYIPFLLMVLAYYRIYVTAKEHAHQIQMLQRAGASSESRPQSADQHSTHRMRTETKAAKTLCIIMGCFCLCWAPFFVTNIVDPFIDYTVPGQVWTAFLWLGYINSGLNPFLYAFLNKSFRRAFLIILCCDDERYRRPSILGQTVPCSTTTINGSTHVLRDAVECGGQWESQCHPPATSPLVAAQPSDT
Chain of D(3) dopamine receptor (Homo sapiens) (P35462 whole entry): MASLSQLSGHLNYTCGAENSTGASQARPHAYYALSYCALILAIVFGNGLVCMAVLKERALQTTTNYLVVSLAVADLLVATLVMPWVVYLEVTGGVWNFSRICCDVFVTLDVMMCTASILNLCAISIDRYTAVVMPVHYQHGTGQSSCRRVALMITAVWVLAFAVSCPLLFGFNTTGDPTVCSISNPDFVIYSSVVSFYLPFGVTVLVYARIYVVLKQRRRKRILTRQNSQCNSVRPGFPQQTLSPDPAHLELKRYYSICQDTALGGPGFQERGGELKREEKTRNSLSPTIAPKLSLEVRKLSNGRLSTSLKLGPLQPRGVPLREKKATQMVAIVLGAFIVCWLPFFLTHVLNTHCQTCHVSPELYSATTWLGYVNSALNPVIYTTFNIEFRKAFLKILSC
Chain of Beta-2 adrenergic receptor (Homo sapiens) (P07550 whole entry, looked up): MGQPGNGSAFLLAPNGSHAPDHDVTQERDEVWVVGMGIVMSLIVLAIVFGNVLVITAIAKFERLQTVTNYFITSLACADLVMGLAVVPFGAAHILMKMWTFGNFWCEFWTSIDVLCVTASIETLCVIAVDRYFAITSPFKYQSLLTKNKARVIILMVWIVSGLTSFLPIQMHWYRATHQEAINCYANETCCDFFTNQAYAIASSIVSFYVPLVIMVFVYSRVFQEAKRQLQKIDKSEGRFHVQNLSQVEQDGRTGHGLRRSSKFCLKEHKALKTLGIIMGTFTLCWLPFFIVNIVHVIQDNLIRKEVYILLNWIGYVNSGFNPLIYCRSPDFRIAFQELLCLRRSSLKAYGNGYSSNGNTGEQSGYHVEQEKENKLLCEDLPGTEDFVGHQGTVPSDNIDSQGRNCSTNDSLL
Chain of Muscarinic acetylcholine receptor M3 (Homo sapiens) (P20309 whole entry, looked up): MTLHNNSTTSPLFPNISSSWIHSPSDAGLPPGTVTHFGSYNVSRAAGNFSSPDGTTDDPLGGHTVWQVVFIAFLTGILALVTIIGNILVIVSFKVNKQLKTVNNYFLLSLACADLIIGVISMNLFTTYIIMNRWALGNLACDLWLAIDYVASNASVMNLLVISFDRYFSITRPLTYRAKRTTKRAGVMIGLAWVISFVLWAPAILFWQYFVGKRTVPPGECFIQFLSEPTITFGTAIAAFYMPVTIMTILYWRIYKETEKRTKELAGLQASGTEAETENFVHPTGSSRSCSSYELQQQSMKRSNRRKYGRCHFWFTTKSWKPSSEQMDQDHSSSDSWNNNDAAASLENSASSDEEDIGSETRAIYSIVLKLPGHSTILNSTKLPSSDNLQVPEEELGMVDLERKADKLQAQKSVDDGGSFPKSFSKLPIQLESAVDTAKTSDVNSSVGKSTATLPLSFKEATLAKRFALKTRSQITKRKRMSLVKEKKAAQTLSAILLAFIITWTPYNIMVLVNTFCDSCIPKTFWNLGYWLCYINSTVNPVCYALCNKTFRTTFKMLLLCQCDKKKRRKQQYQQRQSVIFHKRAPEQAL
Chain of Muscarinic acetylcholine receptor M4 (Homo sapiens) (P08173 whole entry): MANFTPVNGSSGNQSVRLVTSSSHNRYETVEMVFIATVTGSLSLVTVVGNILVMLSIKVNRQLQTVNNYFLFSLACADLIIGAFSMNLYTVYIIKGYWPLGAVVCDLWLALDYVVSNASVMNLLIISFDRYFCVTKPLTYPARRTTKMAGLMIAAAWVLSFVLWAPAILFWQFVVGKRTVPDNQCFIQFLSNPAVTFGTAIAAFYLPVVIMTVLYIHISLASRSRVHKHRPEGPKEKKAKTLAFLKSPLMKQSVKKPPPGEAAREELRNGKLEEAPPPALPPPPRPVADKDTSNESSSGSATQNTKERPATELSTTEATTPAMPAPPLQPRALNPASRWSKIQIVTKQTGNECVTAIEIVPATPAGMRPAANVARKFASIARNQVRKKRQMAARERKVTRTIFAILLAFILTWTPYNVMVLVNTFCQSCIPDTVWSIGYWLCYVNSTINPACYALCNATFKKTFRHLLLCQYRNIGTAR
Chain of 5-hydroxytryptamine receptor 2C (Homo sapiens) (P28335 whole entry): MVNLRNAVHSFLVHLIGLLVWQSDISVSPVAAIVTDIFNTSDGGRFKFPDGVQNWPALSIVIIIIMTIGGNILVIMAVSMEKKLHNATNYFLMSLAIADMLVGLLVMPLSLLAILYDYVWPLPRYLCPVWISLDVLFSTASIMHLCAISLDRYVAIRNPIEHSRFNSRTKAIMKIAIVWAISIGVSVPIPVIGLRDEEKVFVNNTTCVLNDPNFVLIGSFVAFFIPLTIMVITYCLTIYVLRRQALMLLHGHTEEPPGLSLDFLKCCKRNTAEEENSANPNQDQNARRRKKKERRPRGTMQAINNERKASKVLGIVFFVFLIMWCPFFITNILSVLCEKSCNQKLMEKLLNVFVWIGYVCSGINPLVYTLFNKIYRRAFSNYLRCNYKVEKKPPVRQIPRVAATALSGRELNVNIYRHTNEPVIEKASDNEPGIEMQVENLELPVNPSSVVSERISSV
Chain of D(2) dopamine receptor (Homo sapiens) (P14416 whole entry): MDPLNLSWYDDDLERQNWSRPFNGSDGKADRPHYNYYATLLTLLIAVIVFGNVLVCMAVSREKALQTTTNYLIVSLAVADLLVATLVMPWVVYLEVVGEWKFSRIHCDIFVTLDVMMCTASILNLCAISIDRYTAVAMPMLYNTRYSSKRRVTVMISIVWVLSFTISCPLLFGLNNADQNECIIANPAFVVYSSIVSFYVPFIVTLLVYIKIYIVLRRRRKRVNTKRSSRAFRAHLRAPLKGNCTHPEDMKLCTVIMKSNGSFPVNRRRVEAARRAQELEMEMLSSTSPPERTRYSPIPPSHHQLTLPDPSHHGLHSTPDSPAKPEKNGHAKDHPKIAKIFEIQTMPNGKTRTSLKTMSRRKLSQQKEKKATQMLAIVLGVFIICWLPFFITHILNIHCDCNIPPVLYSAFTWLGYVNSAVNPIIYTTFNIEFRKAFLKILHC
Chain of 5-hydroxytryptamine receptor 6 (Homo sapiens) (P50406 whole entry): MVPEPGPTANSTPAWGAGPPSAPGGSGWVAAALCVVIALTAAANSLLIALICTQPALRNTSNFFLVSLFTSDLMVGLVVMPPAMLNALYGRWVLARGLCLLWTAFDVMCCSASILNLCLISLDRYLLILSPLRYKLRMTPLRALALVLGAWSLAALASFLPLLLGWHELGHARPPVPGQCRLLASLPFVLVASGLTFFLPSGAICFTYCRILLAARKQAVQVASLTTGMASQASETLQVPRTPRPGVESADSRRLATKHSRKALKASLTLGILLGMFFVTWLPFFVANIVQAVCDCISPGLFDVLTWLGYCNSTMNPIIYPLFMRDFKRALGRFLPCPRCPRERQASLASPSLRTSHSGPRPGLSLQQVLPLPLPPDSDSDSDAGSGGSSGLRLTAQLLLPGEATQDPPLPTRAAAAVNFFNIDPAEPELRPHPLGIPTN
Chain of 5-hydroxytryptamine receptor 1A (Homo sapiens) (P08908 whole entry): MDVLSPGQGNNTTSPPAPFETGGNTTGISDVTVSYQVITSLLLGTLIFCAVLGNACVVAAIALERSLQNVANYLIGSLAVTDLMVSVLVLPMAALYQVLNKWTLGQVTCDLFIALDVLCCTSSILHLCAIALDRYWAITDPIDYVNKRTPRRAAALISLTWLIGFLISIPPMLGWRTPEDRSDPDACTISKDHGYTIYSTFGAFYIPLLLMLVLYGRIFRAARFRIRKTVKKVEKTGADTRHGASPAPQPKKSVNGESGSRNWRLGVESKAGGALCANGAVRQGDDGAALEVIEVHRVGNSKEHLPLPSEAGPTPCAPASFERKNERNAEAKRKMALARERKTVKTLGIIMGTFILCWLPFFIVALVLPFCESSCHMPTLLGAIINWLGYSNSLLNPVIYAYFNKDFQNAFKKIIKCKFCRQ

What is called pIC50 is −log10 of the IC50, conventionally taken in molar units. Read a high pIC50 as a low IC50. For the compound `O=C(O)[C@@H]1C[C@H](CP(=O)(O)O)CCN1` [SELFOTEL], the pIC50 in [1] was 6.01.
In general, inhibition refers to the relative decrease from the control value, in per cent. Higher therefore signals a strong effect. As to `Nc1ncnc2c1ncn2[C@H]1C[C@H](O)[C@@H](COP(O)(=S)OP(=O)(O)OP(=O)(O)O)O1` (some centres undefined), in [2], the inhibition stood at 22%.
For `Nc1ncnc2c1ncn2[C@@H]1O[C@H](COP(=O)(O)CP(=O)(O)OP(=O)(O)O)[C@@H](O)[C@H]1O` [DIPHOSPHOMETHYLPHOSPHONIC ACID ADENOSYL ESTER], the inhibition in [2] was found to be 14%.
The pKi is −log10 of the Ki, conventionally taken in molar units. A low value points to a high Ki. As to `Cc1nc(N)c2nc(-n3nccn3)n(C)c2n1`, the pKi on Adenosine receptor A1 is 7.98.
Regarding `CCCc1nc(N)c2nc(-n3nccn3)n(C)c2n1`, the values for the pKi at Adenosine receptor A2b, at Adenosine receptor A1 and on Adenosine receptor A2a were 7.74, 6.58 and 7.08, respectively.
For the compound `Cc1cc2c(nc(-n3nccn3)n2C)c(N)n1`, the values for the pKi at Adenosine receptor A2b, at Adenosine receptor A1 and at Adenosine receptor A2a were 6.85, 6.47 and 6.92, respectively.
In turn, `C[N+]1(C)CCOC(O)(c2ccc(-c3ccc(C4(O)C[N+](C)(C)CCO4)cc3)cc2)C1` (centres undefined) showed a pIC50 in assay [3] of 7.92.
With `Cn1c(-n2nccn2)nc2c(N)nccc21`, the pKi on Adenosine receptor A2b is 6.29; at Adenosine receptor A1, 5.98; on Adenosine receptor A2a, 7.29.
Turning to `Cn1c(-n2nccn2)nc2c(N)ncnc21`, on Adenosine receptor A1, the pKi was 9.40.
As for `NCc1cc(=O)[nH]o1` [MUSCIMOL], the negative logarithm of the IC50 (pIC50) in [4] was 7.80.
In the case of `O=c1nc2[nH]c3ccccc3nc-2c(=O)[nH]1` [ALLOXAZINE], the figures for the pKi at Adenosine receptor A1 and at Adenosine receptor A2a were under 4.00 and 6.03, respectively.
At Adenosine receptor A1, `CCn1c(=O)c2c(nc(/C=C/c3ccc(OC)c(OC)c3)n2C)n(CC)c1=O` [ISTRADEFYLLINE] gave a pKi of under 6.00.
With `CC(C)c1nc(N)c2nc(-n3nccn3)n(C)c2n1`, the pKi was 5.64 on Adenosine receptor A1 and 6.32 on Adenosine receptor A2a.
`CCCCCc1nc(N)c2nc(-n3nccn3)n(C)c2n1`: the inhibition (in assay [5]; in the assay listed under Homo sapiens [6]; in [7]; in assay [8]; in assay [9]; in assay [10]) was under 10% in each case. Moreover, the inhibition in [11], in assay [12], in assay [13], in [14], in [15] and in assay [16] was under 10% in each case. The inhibition (in assay [17]; in assay [18]; in the assay filed under Homo sapiens [19]; in [20]; in assay [21]; in [22]) was under 10% each time. Further, the inhibition was under 10% in assay [23]; under 10% in assay [24]; under 10% in assay [25]; 34% in [26]; under 10% in assay [27]; under 10% in assay [28]. Also, the inhibition in [29], in assay [30], in [31], in [32], in [33] and in assay [34] was under 10% in each case. Also, the inhibition in assay [35], in assay [36], in [37] and in [38] was under 10% throughout. The pKi at Adenosine receptor A3 is 6.12.
As to `CCCCc1nc(N)c2nc(-n3nccn3)n(C)c2n1` [ST1535], the inhibition (in assay [5]; in the assay listed under Homo sapiens [6]; in assay [7]; in assay [8]; in [9]; in [10]) was under 10% throughout. Further, the inhibition in assay [11], in assay [12], in assay [13], in assay [14], in assay [15] and in assay [16] was under 10% throughout. Further, the inhibition (in assay [17]; in assay [18]; in the assay filed under Homo sapiens [19]; in [20]; in [21]; in assay [22]) was under 10% in each case. The inhibition was under 10% in assay [23]; under 10% in assay [24]; under 10% in assay [25]; 24% in [26]; under 10% in [27]; under 10% in [28]. Further, the inhibition in [29], in assay [30], in [31], in assay [32], in assay [33] and in assay [34] was under 10% each time. The inhibition in assay [35], in assay [36], in assay [37] and in assay [38] was under 10% each time. Moreover, the pKi at Adenosine receptor A3 is under 6.00; on Adenosine receptor A2b, 6.45; on Adenosine receptor A1, 7.14; on Adenosine receptor A2a it was 8.18.
